Measured values from ChEMBL document CHEMBL1149483, “Identification of potent agonists of photoreceptor-specific nuclear receptor (NR2E3) and preparation of a radioligand” (Bioorg Med Chem Lett, 2006).

Assays:
[1] = molecular target: T1, Photoreceptor-specific nuclear receptor (Homo sapiens, UniProt Q9Y5X4); test: Agonist activity at NR2E3 by luciferase NCOR release assay in CHO cells; assay type: functional, cell-based
[2] = molecular target: T1, Photoreceptor-specific nuclear receptor; test: Agonist activity at NR2E3 by beta lactamase transactivation assay; assay type: functional

T1 sequence (Q9Y5X4 whole entry): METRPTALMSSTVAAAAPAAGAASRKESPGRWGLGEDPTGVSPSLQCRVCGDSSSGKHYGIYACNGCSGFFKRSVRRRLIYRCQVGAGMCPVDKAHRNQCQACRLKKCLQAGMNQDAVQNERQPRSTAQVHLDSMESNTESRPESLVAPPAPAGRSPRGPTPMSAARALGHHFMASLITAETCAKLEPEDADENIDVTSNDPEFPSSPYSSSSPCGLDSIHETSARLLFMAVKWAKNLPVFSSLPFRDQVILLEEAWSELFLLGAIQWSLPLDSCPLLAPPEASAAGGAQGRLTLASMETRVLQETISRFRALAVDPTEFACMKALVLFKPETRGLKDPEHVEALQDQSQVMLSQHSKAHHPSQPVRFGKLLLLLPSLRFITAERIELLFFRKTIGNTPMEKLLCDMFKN

SMILES	EC50 [1]	EC50 [2]
O=C(Nc1ccc2nc(-c3cc(Cl)cc(Cl)c3O)[nH]c2c1)c1ccccc1Cl	4200 nM	> 25000 nM
O=C(Nc1ccc2nc(-c3cnn(-c4ccc(F)cc4)c3)[nH]c2c1)c1ccccc1Cl	4100 nM	> 25000 nM
O=C(Nc1ccc(-c2nc3ccc(NC(=O)C4CC4)cc3[nH]2)cc1)c1ccccc1Cl	35 nM	141 nM
CC1(C(=O)Nc2ccc3nc(-c4ccc(NC(=O)c5ccccc5Cl)cc4)[nH]c3c2)CC1	2900 nM	2500 nM
O=C(Nc1ccc(-c2nc3ccc(NC(=O)C4CCCC4)cc3[nH]2)cc1)c1ccccc1Cl	1320 nM	3160 nM
O=C(Nc1ccc2[nH]c(-c3ccc4c(c3)OCO4)nc2c1)c1ccccc1Cl	7200 nM	> 25000 nM
CC(C)C(=O)Nc1ccc2nc(-c3ccc(NC(=O)c4ccccc4Cl)cc3)[nH]c2c1	147 nM	316 nM
CC(C)(C)C(=O)Nc1ccc2nc(-c3ccc(NC(=O)c4ccccc4Cl)cc3)[nH]c2c1	2610 nM	6270 nM

Other lines, results leading:

EC50 [1]	EC50 [2]	SMILES
370 nM	> 25000 nM	O=C(Nc1ccc(-c2nc3cc(NC(=O)C4(c5ccccc5)CC4)ccc3[nH]2)cc1)c1ccccc1Cl
986 nM	1330 nM	O=C(Nc1ccc(-c2nc3cc(NC(=O)C4CCC4)ccc3[nH]2)cc1)c1ccccc1Cl
330 nM	260 nM	Cc1ccccc1C(=O)Nc1ccc(-c2nc3ccc(NC(=O)c4ccccc4Cl)cc3[nH]2)cc1
4100 nM	10000 nM	O=C(Nc1cccc(-c2nc3cc(NC(=O)c4ccccc4Cl)ccc3[nH]2)c1)c1ccccc1Cl
3000 nM	2100 nM	O=C(Nc1ccc(-c2nc3cc(NC(=O)C4CC4(F)F)ccc3[nH]2)cc1)c1ccccc1Cl (stereo unspecified)
2200 nM	4800 nM	O=C(Nc1ccc2nc(-c3ccc(NC(=O)c4cccnc4Cl)cc3)[nH]c2c1)c1ccccc1Cl
610 nM	270 nM	O=C(Nc1ccc(-c2nc3cc(NC(=O)c4ccccc4Cl)ccc3[nH]2)cc1)c1ccccc1
170 nM	270 nM	O=C(Nc1ccc(-c2nc3cc(NC(=O)c4ccccc4Cl)ccc3[nH]2)cc1)c1ccccc1F
10000 nM	17000 nM	N#CC1(C(=O)Nc2ccc3[nH]c(-c4ccc(NC(=O)c5ccccc5Cl)cc4)nc3c2)CC1
260 nM	720 nM	O=C(Nc1ccc(-c2nc3cc(NC(=O)[C@@H]4C[C@H]4F)ccc3[nH]2)cc1)c1ccccc1Cl
